Experimental findings from article PMC11079868, “Synthesis of Novel Hydrazide–Hydrazone Compounds and In Vitro and In Silico Investigation of Their Biological Activities against AChE, BChE, and hCA I and II” (ACS Omega, 2024) are described below.

Read-outs that look alike come from different tables or passages of the source.

What all share (assay type): biochemical
One test addresses T1, hCA I (Homo sapiens, UniProt P00915).
T1 construct: from tissue; host or cells: fresh human erythrocytes
As to the kind of experiment: biochemical. The following applies: for IC50: mean from at least three determinations. The source says: (§1) In this study, hCA I and II were obtained from fresh human erythrocytes using affinity chromatography as previously described in the literature.[36],[37] AChE from Electrophorus electricus (electric eel) (C3389: Sigma-Aldrich), BChE from equine serum (C4290: Sigma-Aldrich), and the other chemicals (4-nitrophenyl acetate (N8130: Sigma-Aldrich), 5,5′-dithiobis(2-nitrobenzoic acid) (D218200: Sigma-Aldrich), acetylthiocholine iodide (A5771: Sigma-Aldrich), butyrylthiocholine iodide (B3253: Sigma-Aldrich)) were purchased from local representatives of well-known commercial companies. On the other hand, the absorbance rates of each compound were determined by a microplate spectrophotometer (Multiskan Go, Thermo Scientific).
In this study, we conducted hCA I and II activity assays using the Verpoorte method, as outlined in previous literature.[38] The inhibitory activities of all of the newly synthesized compounds were thoroughly tested. The inhibitory activity of each molecule was examined in triplicate at each concentration. Different concentrations were employed for all inhibitors tested in this study, respectively. The baseline activity in the control cuvette, without any inhibitory agent, was established as 100%.

The target of another test is T2, hCA II (Homo sapiens, UniProt P00918).
T2 construct: from tissue; host or cells: fresh human erythrocytes
As to the kind of experiment: hCA II activity assay (Verpoorte esterase method). The following applies: mean from at least three determinations.
Excerpt: as §1
In this study, we conducted hCA I and II activity assays using the Verpoorte method, as outlined in previous literature.[38] The inhibitory activities of all of the newly synthesized compounds were thoroughly tested. The inhibitory activity of each molecule was examined in triplicate at each concentration. Different concentrations were employed for all inhibitors tested in this study, respectively. The baseline activity in the control cuvette, without any inhibitory agent, was established as 100%. AZA was used as a positive control compound.

The next test concerns the target T3, AChE (Electrophorus electricus, UniProt O42275).
T3 construct: purchased Sigma-Aldrich C3389
The test is described as follows: AChE activity assay (Ellman method). The following applies: for IC50: mean from at least three determinations.
Excerpt: as §1
(§2) The evaluation of the inhibitory characteristics of all synthesized compounds against AChE and BChE was conducted using the widely recognized Ellman method,[41] as described in pertinent literature sources.[2],[14],[18]
(In general: Ellman's reagent forms a yellow product with free thiols.)

In the next test the target is T4, BChE (Equus caballus, UniProt P81908).
T4 construct: BChE from equine serum (C4290: Sigma-Aldrich); purchased Sigma-Aldrich C4290; host or cells: equine serum
T4 sequence (P81908 whole entry): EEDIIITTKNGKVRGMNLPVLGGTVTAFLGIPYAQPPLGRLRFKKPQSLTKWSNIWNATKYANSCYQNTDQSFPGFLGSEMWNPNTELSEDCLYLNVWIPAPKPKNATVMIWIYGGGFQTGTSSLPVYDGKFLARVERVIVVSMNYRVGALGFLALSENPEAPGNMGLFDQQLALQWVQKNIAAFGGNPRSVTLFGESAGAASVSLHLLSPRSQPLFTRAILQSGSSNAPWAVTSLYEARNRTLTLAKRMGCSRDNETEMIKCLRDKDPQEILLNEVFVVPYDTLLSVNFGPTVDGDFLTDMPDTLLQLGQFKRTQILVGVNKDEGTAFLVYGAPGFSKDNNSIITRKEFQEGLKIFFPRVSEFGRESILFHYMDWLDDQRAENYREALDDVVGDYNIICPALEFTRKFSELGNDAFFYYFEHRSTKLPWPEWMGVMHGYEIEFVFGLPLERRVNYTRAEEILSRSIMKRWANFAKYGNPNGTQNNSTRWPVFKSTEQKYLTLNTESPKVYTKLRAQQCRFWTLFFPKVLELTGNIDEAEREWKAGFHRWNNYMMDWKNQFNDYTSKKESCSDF
As to the kind of experiment: BChE activity assay (Ellman method).
Excerpt: as §1, §2

The mark [1] stands for this setting: mean from at least three determinations, read-out: IC50 BChE.
Where [2] appears, read: ratio of IC50 values vs neostigmine.

T3 sequence (O42275 24-633): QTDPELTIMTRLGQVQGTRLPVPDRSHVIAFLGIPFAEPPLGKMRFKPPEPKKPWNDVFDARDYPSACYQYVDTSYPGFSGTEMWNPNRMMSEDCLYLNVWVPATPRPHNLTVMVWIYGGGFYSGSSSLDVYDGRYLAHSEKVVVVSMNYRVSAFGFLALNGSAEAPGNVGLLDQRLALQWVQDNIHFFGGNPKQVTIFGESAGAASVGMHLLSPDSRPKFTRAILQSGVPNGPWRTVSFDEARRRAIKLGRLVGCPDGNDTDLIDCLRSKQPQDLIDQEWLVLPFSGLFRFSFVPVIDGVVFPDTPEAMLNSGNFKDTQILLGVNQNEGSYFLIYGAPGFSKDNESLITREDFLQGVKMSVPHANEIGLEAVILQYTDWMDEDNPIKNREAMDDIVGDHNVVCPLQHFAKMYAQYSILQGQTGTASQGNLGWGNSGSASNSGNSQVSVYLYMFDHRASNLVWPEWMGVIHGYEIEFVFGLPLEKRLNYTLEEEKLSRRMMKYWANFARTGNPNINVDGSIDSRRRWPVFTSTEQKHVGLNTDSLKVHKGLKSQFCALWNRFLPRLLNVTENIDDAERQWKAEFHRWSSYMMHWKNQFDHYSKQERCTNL
T1 sequence (P00915 whole entry): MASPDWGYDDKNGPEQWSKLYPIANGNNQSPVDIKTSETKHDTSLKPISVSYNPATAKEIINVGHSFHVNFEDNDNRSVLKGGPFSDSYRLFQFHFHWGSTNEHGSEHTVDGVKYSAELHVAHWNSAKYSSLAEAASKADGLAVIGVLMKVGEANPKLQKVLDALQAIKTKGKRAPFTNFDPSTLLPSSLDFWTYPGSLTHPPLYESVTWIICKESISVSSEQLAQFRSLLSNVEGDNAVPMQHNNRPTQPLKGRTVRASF

Turning to `CN(C)c1ccc(C(=O)Oc2ccccc2C=O)cc1` [compound 1, 2-Formylphenyl 4-(Dimethylamino)benzoate], the IC50 (commonly the point on the concentration scale where inhibition reaches its midpoint) was 0.0275 ± 0.00051 µM on hCA I, 0.0137 ± 0.00027 µM against hCA II, 0.0511 ± 0.00088 µM against AChE and 0.0435 ± 0.00075 µM on BChE (setting [1]).
`CN(C)c1ccc(C(=O)Oc2ccc(C=O)cc2)cc1` [compound 2, 4-Formylphenyl 4-(Dimethylamino)benzoate]: the IC50 at hCA I was 0.0256 ± 0.00047 µM; at hCA II, 0.0122 ± 0.00021 µM; on AChE it was 0.0485 ± 0.00081 µM; on BChE (setting [1]), 0.0415 ± 0.00068 µM.
With `COc1cccc(C=O)c1OC(=O)c1ccc(N(C)C)cc1` [compound 3, 2-Formyl-6-methoxyphenyl 4-(Dimethylamino)benzoate], the IC50 is 0.0396 ± 0.00072 µM against hCA I, 0.0161 ± 0.00033 µM against hCA II, 0.0595 ± 0.00096 µM against AChE and 0.0513 ± 0.00089 µM on BChE (setting [1]).
Take `COc1ccc(C=O)cc1OC(=O)c1ccc(N(C)C)cc1` [compound 4, 5-Formyl-2-methoxyphenyl 4-(Dimethylamino)benzoate]: the IC50 against hCA I was found to be 0.0381 ± 0.00065 µM; at hCA II, 0.0154 ± 0.00032 µM; on AChE, 0.0602 ± 0.00102 µM; on BChE (setting [1]), 0.0531 ± 0.00091 µM.
As to `COc1cc(C=O)ccc1OC(=O)c1ccc(N(C)C)cc1` [compound 5, 4-Formyl-2-methoxyphenyl 4-(Dimethylamino)benzoate], the IC50 against hCA I came out at 0.0391 ± 0.00071 µM; at hCA II, 0.0204 ± 0.00035 µM; at AChE it was 0.0614 ± 0.00112 µM; on BChE (setting [1]) it was 0.0547 ± 0.00091 µM.
`CN(C)c1ccc(C(=O)Oc2ccc3ccccc3c2C=O)cc1` [compound 6, 1-Formylnaphthalen-2-yl 4-(Dimethylamino)benzoate]: the IC50 is 0.0451 ± 0.00082 µM against hCA I, 0.0247 ± 0.00043 µM on hCA II, 0.0282 ± 0.00052 µM on AChE and 0.0252 ± 0.00042 µM on BChE (setting [1]).
In the case of `CN(C)c1ccc(C(=O)Oc2ccccc2C=NNC(=O)c2cccnc2)cc1` [compound 7, 2-((2-Nicotinoylhydrazono)methyl)phenyl 4-(Dimethylamino)benzoate], the IC50 amounted to 0.0291 ± 0.00053 µM against hCA I, 0.00803 ± 0.00014 µM at hCA II, 0.0486 ± 0.00079 µM against AChE and 0.0453 ± 0.00082 µM at BChE (setting [1]).
For `CN(C)c1ccc(C(=O)Oc2ccc(C=NNC(=O)c3cccnc3)cc2)cc1` [compound 8, 4-((2-Nicotinoylhydrazono)methyl)phenyl 4-(Dimethylamino)benzoate], the IC50 against hCA I came out at 0.0214 ± 0.00039 µM; against hCA II, 0.00712 ± 0.00012 µM; on AChE, 0.0463 ± 0.00075 µM; on BChE (setting [1]) it was 0.0434 ± 0.00083 µM. The “inhibition of hCA I relative to AZA” value on hCA I (ratio of IC50 values vs AZA) was 13 fold.
`COc1cccc(C=NNC(=O)c2cccnc2)c1OC(=O)c1ccc(N(C)C)cc1` [compound 9, 2-Methoxy-6-((2-nicotinoylhydrazono)methyl)phenyl 4-(Dimethylamino)benzoate]: the IC50 stood at 0.0357 ± 0.00074 µM against hCA I, 0.0125 ± 0.00021 µM at hCA II, 0.0432 ± 0.00081 µM against AChE and 0.0396 ± 0.00071 µM on BChE (setting [1]).
Take `COc1ccc(C=NNC(=O)c2cccnc2)cc1OC(=O)c1ccc(N(C)C)cc1` [compound 10, 2-Methoxy-5-((2-nicotinoylhydrazono)methyl)phenyl 4-(Dimethylamino)benzoate]: the IC50 on hCA I was 0.0325 ± 0.00073 µM; against hCA II, 0.0118 ± 0.00022 µM; at AChE, 0.0296 ± 0.00053 µM; at BChE (setting [1]), 0.0297 ± 0.00054 µM.
For `COc1cc(C=NNC(=O)c2cccnc2)ccc1OC(=O)c1ccc(N(C)C)cc1` [compound 11, 2-Methoxy-4-((2-nicotinoylhydrazono)methyl)phenyl 4-(Dimethylamino)benzoate], in that order: 0.0322 ± 0.00072 µM, 0.0116 ± 0.00022 µM, 0.0286 ± 0.00052 µM and 0.0286 ± 0.0005 µM.
Regarding `CN(C)c1ccc(C(=O)Oc2ccc3ccccc3c2C=NNC(=O)c2cccnc2)cc1` [compound 12, 1-((2-Nicotinoylhydrazono)methyl)naphthalen-2-yl 4-(Dimethylamino)benzoate], the IC50 on hCA I worked out at 0.0427 ± 0.00081 µM; against hCA II, 0.0235 ± 0.00041 µM; against AChE, 0.0214 ± 0.00038 µM; at BChE (setting [1]), 0.0184 ± 0.00036 µM. In addition, the “inhibition of AChE relative to neostigmine” value on AChE (setting [2]) is “more than 6 fold”. The “inhibition of AChE relative to rivastigmine” value on AChE (ratio of IC50 values vs rivastigmine) is given as “approximately 3 fold”. In addition, the “inhibition of BChE relative to neostigmine” value at BChE (setting [2]) is given as “approximately 5 fold”; on BChE (ratio vs neostigmine, Conclusions text), “approximately 4 times”.
The molecule `CN(C)C(=O)Oc1cccc([N+](C)(C)C)c1` [neostigmine, reference compound] showed an IC50 against BChE of 0.084 ± 0.00107 µM.
